Measurements: ChEMBL document CHEMBL1153768, “New potential AChE inhibitor candidates” (Eur J Med Chem, 2009)

Experiments:
[1] = molecular target: Acetylcholinesterase (Electrophorus electricus) (UniProt O42275); experiment: Inhibition of Electrophorus electricus AChE at 100 uM
[2] = molecular target: Acetylcholinesterase (Electrophorus electricus) (UniProt O42275); experiment: (§1) Inhibition of Electrophorus electricus AChE
Acetylcholinesterase = Acetylcholinesterase (Electrophorus electricus, UniProt O42275); experiment: as §1
Chain of Acetylcholinesterase (O42275 whole entry): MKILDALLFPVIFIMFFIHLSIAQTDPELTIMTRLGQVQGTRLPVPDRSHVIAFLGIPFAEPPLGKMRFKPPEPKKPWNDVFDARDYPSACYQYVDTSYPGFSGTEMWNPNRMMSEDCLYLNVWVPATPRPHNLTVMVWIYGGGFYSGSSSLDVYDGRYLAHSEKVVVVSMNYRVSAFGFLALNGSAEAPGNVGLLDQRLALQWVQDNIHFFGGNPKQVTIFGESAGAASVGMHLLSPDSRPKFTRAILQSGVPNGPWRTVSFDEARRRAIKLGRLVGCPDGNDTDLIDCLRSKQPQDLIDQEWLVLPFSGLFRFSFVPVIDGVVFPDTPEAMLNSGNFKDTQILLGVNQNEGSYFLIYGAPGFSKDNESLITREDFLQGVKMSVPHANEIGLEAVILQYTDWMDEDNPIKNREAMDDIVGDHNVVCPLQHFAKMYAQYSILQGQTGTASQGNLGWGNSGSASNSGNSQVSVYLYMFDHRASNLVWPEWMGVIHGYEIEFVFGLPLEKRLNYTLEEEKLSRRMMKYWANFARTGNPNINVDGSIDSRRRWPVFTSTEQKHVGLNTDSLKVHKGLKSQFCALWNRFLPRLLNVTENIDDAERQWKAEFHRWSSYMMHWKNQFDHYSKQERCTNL

Chain of Acetylcholinesterase (Electrophorus electricus) (O42275 24-633 limits assumed): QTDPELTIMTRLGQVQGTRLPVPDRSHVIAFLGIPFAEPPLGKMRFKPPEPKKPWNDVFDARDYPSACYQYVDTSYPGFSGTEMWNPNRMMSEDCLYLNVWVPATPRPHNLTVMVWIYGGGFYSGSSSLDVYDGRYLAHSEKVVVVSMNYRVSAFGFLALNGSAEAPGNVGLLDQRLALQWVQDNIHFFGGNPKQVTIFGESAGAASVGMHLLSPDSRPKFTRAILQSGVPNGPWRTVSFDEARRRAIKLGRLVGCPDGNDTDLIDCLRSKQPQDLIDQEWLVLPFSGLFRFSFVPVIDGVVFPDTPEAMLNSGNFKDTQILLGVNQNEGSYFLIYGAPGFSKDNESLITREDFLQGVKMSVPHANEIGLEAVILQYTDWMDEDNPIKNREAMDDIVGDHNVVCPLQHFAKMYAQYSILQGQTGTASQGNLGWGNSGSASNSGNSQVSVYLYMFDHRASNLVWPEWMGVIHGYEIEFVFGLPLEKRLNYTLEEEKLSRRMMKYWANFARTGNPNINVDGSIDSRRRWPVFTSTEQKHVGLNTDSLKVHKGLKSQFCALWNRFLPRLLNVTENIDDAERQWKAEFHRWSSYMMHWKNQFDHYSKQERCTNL

SMILES | inhibition [1] | inhibition [2] | IC50 (Acetylcholinesterase)
CCCCCCCCCCCCCCC(c1cccc(OC(=O)N(C)C)c1)N(C)Cc1ccccc1 (stereo not drawn) | 25% |  | 
CCCCCCCCCCCCCCC(c1cccc(OC(=O)N(C)C)c1)N(CC)CC (stereo not drawn) |  | Dose-dependent effect | 251 µM
CCCCCCCCCCCCCCC(c1cccc(OC(=O)N(C)C)c1)N(C)C (stereo not drawn) |  | Dose-dependent effect | 50 µM
CCCCCCCCCCCCCCC(c1cccc(OC(=O)N(C)C)c1)N1CCCCC1 (stereo not drawn) | 25% |  | 
CCCCCCCCCCCCCCC(c1cccc(OC(=O)N(C)C)c1)N1CCCC1 (stereo not drawn) |  | Dose-dependent effect | 84.3 µM
